# Measurements: US10201526B2, “Compositions and methods for inhibiting the growth of neisseria gonorrhoeae” (Research Institute at Nationwide Children's Hospital, priority 2015, dated 2019)
# Key:
# Ng = assay: Antimicrobial disk diffusion assays; set-up: species or system Neisseria gonorrhoeae; details: no human cells
# Source text: This effect was specific to infection of human cells in that AR-12 was not effective against the Ng by antimicrobial disk diffusion assays, which prohibit Ng growth on agar plates.
# [1] = Stability at ambient conditions (cGMP material); type: physicochemical
# Source text: AR-12 was initially developed by Arno Therapeutics (Arno) in 2008 for an oncology indication. In support of this oncology program, Arno initiated an Investigational New Drug (IND) enabling toxicology program, which included standard Good Laboratory Practice (GLP) tests (e. g. genotoxicity), a battery of safety pharmacology studies, and 28-day general toxicity assessments performed in rats and dogs. Before Arno's involvement, the National Cancer Institute had generated preclinical ADME (i. e., absorption, distribution, metabolism, and excretion) and toxicology data in the mouse model as part of the Rapid Access to Intervention Development (RAID) program. AR-12 synthesis was optimized and scaled-up to approximately 50 kg (purity >99.5%; stability ≥24 months at ambient conditions) under Current Good Manufacturing Practices (cGMP) conditions in anticipation of continued clinical development in the oncology setting.
# [2] = Phase I oncology study of AR-12; type: in vivo, human
# Source text: AR-12 was originally investigated in a Phase I oncology study (27), an IND (IND #103799) was previously filed with the Food and Drug Administration (FDA), and an Investigational Medicinal Product Dossier (IMPD) was filed with the Medicines and Healthcare Products Regulatory Agency (MHRA Reference: 35725/0001/001-0001 [EudraCT Number: 2009-014285-25]) in the United Kingdom, which enabled the Phase I study entitled: “A Phase I Study of AR-12 (2-Amino-N-[4-[5-(2-phenanthrenyl)-3-(trifluoromethyl)-1H-pyrazol-1-yl]phenyl]-acetamide) in Adult Patients With Advanced or Recurrent Solid Tumors or Lymphoma, for Which No Standard Therapy Is Available”. […] Thirty-five patients were enrolled at nine dose levels. With the original formulation tested, the recommended oncology Phase II dose was 800 mg twice daily.
# The half-life in humans is long and is estimated to be approximately 60 hours. […] This is a favorable property for the treatment of Ng, which is, with rare exception, a mucosal pathogen. AR-12 is slowly released from the tissue back into the bloodstream and slowly excreted, which explains its long half-life.
# [3] = preclinical studies (ref. 36); cited from earlier work
# [4] = tested on: Ng strains 1291 and (MDR) WHO-M; assay: Modified gentamicin survival assay, drug added to established Ng infection of PEX cells; type: cell-based, Neisseria gonorrhoeae
# Description: Modified gentamicin survival assays were performed in which pex cells were challenged with our preferred laboratory Ng strain, 1291, or the MDR Ng strain, WHO-M (beta-lactam-, ciprofloxacin-, and rifampicin-resistant; plus a mtrR mutation that could effect resistance to other compounds (35)). Infections were allowed to proceed for 90 min to allow Ng to adhere to and invade PEX cells. Vehicle control, AR-12, ceftriaxone, or gentamicin was then added to established infections.
# At the indicated times post-challenge, the infection medium was removed, the PEX cell monolayers were rinsed and lysed, and viable Ng were enumerated by counting CFUs after plating serial dilutions of the PEX cell lysates. The percentage of Ng that survived the test treatment was determined as a function of the infection inoculum. In this aspect, the units are colony forming units—percent survival calculated as: [(#CFU (x dilution factor)) divided by (number of bacteria used as the infection inoculum (˜typically 1×10^7 bacteria per ml))×100]. A significant reduction (at least about 300 fold) in viable Ng was observed following a 3-hour incubation with 10 μM AR-12 (FIG. 2A).
# Concentrations of AR-12 tested are shown on the x-axis. “None” refers to vehicle control.
# [5] = tested on: Ng invasion of and survival within PEX cells; assay: Gentamicin-survival assays: Ng invasion of and survival within PEX cells with estradiol, progesterone, Akt inhibitor; type: cell-based, Neisseria gonorrhoeae
# Description: Progesterone (Pg) augments gonococcal invasion of and survival within PEX cells. […] Therefore, to more closely mimic the luteal phase of the menses cycle, when Pg concentrations fluctuate between 3 nM and 30 nM, the effect of Pg on Ng invasion of and survival within PEX cells was evaluated using a gentamicin-survival assays with 0.4 nM of estradiol (E2) and variable concentrations of Pg (FIG. 1)
# Further studies were conducted to determine if Pg augmented the ability of gonococci to survive intracellularly within PEX cells. Following gentamicin treatment (to kill extracellular bacteria), infected cell monolayers were either lysed (releasing the invasive Ng) and serial dilutions were plated, or they were re-incubated in antibiotic free medium for 1 or 3 hours longer before plating the PEX cell lysate and quantitating colony forming units. Akt inhibitor VII was included or omitted from these experiments.
# [6] = by 24 hours post-AR-12 treatment
SMILES,effectiveness against Ng on agar plates (Ng),stability [1] [months],"dose limiting toxicities (DLT) ([2]; doses appropriate in the oncology setting, human)","half-life ([2]; human, blood, oral dosage form, Phase I study, estimated, read-out: half-life in humans (converted)) [h]","safety profile ([2]; long-term oral exposures up to 33 weeks, phase I study)","recommended oncology Phase II dose ([2]; original formulation, human) [mg twice daily]",accumulation in tissues relative to blood level concentrations [3],blood brain barrier penetration [3],"reduction in viable Ng ([4]; 10 μM AR-12, 3-hour incubation, Ng-infected PEX cells (FIG. 2A))","viable Ng recovered ([4]; 10 μM AR-12, 24 h (FIG. 2C))","reduction of the amount of viable Ng (CFU) compared to an untreated infection ([4]; 10 μM AR-12, after about 6 hours (FIG. 2E))","reduction of the amount of viable Ng (CFU) compared to an untreated infection ([4]; 10 μM AR-12, after about 24 hours (FIG. 2E))","reduction in the number of viable Ng ([4]; AR-12 treatment 6 h, Ng-infected PEX cells (FIG. 2B))","killing of Ng (bactericidal effect) [4, 6] [%]","spontaneous resistance to AR-12 [4, 6]","gonococcal invasion of PEX cells ([5]; 0.4 nM estradiol, variable concentrations of Pg (FIG. 1A))","ability of gonococci to invade, as well as survive within, PEX cells ([5]; presence of Pg, 1 or 3 hours post-invasion (FIG. 1B))"
"NCC(=O)Nc1ccc(-n2nc(C(F)(F)F)cc2-c2ccc3c(ccc4ccccc43)c2)cc1 [AR-12, 2-amino-N-(4-(5-(phenanthren-2-yl)-3-(trifluoromethyl)-1H-pyrazol-1-yl)phenyl)acetamide]",not effective,≥ 24,"fatigue, dizziness, and skin rash",~60,acceptable safety profile,800,exceeding the blood level concentrations several fold,rapid blood brain barrier penetration,at least 300 fold,no viable Ng were recovered,at least 3 log,at least 7 log,at least 600 fold,100,no spontaneous resistance,–,–
"CC(=O)[C@H]1CC[C@H]2[C@@H]3CCC4=CC(=O)CC[C@]4(C)[C@H]3CC[C@]12C [Pg, Progesterone]",–,–,–,–,–,–,–,–,–,–,–,–,–,–,–,increased with increasing concentrations of Pg,enhanced
